Measurements reported in patent US20230144203A1 (SHANGHAI SENHUI MEDICINE CO., LTD., priority 2020, published 2023).

Legend:
Type in all cases: cell-based
[1] = system: A549; test: Test Example 2 in vitro cytotoxic activity screening (CTG)
Experimental: (§1) The CTG is used for detecting the ATP content in the experiment, and the survival condition of the tumor cells is reflected.
(§2) A549, SKBR3 and MDA-MB-468 were digested with trypsin, and each was resuspended in culture medium to a cell density of 2.2×10^4 cells/mL, and 135 μL of cell suspension was added to each well in columns 2 to 11 of a 96-well plate, and column 12 was set as blank control. The cells were incubated in an incubator for 24 h at 37° C. with 5% CO2.
(§3) a) Stock solution preparation: the test compound and positive control drug were dissolved in DMSO to give a stock solution at a concentration of 5 mM.
(§4) b) Drug preparation plate 1: stock solution in column 1 was initially diluted 40-fold, and 3-fold gradient dilutions were performed sequentially in column 2 to column 11. Column 12 was filled with DMSO.
(§5) c) Drug preparation plate 2: 196 μL of the corresponding culture medium was added into columns 2 to 11, and 4 μL of culture medium was pipetted from column 3 to column 12 of drug preparation plate 1 to column 2 to column 11 of drug preparation plate
(§6) 15 μL of culture medium was pipetted from the drug preparation plate 2 and added into the plated cells. The cells were continuously incubated in an incubator for 5 h at 37° C. with 5% CO2.
(§7) 2.4) CTG assay (Cell Titer-Glo™, luminescent cell viability assay): the cell plates were removed and balanced to room temperature. 75 μL of CTG was added into each well and reacted at room temperature for 10 min in the dark. The absorption value was read using a microplate reader and IC50 was calculated.

[2] = system: MDA-MB-468; test: as above
Experimental: as §1, §2, §3, §4, §5, §6, §7

[3] = system: SKBR3; test: as above
Experimental: as §1, §2, §3, §4, §5, §6, §7

[4] = system: BXPC3; test: Test Example 4 cell killing study (CTG, 6 days); conditions: Homo sapiens, BXPC-3, 144 h, 6 days culture
Description: (§8) The objective of this study is to test the inhibitory activity of the anti-TROP-2 antibody (PD3)-drug conjugate of the present disclosure against the proliferation of different tumor cell lines: Miapaca2 tumor cells (human pancreatic cancer cells, Nanjing Kebai Biotechnology Co., Ltd., Cat #CBP60544), Fadu tumor cells (human squamous cell carcinoma, ATCC, Cat #HTB-43), SK-OV-3 (human ovarian cancer cells, ATCC, Cat #HTB-77), K562 (human chronic granulocytic leukemia cells, ATCC, Cat #CCL-243), HCC827 (human lung cancer cells, ATCC, Cat #CRL-2868) and BXPC3 (human pancreatic cancer cells, ATCC, Cat #CRL-1687). The cells were treated in vitro with the antibody drug conjugate at different concentrations. After 6 days of culture, the proliferation of cells was tested using CTG (CellTiter-Glo® Luminescent Cell Viability Assay, Promega, Cat #G7573) reagents, and the in vitro activity of the antibody drug conjugate was evaluated according to IC50 value.
(§9) 2) Cell plating: on the day of the study, after the cells were digested with Trypsin (0.25% Trypsin-EDTA (1×), Life Technologies, Cat #25200-072), MiaPaCa2, Fadu, SK-OV-3, K562, HCC827 and BXPC3 were suspended in cell suspensions using the corresponding media to a density of 3.7×10^3 cells/mL, and 135 μL of suspension was added into each well of a 96-well plate (coming, Cat #3903) to culture 500 cells per well at 37° C. for 24 h.
(§10) 3) Drug preparation: the mother liquor of the test ADC was first adjusted to have a concentration of 4 μM and was added to the first column of a drug preparation plate (coming, Cat #3599). The plate was diluted 5-fold in gradient from column 2 to column 9, with PBS in column 10. 15 μL of the mother liquor in each well was added to the cell culture plate.
(§11) 4) CTG assay: after being cultured at 37° C. for 6 days, the cell culture plate was removed and balanced to room temperature. 75 μL of CTG was added into each well and reacted at room temperature for 10 min in the dark. The absorption value was read using a microplate reader (BMG labtech, PHERAstar FS).
(§12) Data were processed and analyzed using Graphpad Prism 5.

[5] = system: Fadu tumor cells; test: Test Example 4 cell killing study (CTG, 6 days); conditions: Homo sapiens, 144 h, 6 days culture
Description: as §8, §9, §10, §11, §12

[6] = system: HCC827; test: Test Example 4 cell killing study (CTG, 6 days); conditions: Homo sapiens, HCC827, 144 h, 6 days culture
Description: as §8, §9, §10, §11, §12

[7] = system: K562; test: Test Example 4 cell killing study (CTG, 6 days); conditions: Homo sapiens, K562, 144 h, 6 days culture
Description: as §8, §9, §10, §11, §12

[8] = system: Miapaca2 tumor cells; test: Test Example 4 cell killing study (CTG, 6 days); conditions: Homo sapiens, MIA PaCa-2, 144 h, 6 days culture, read-out: IC50 (Miapaca)
Description: as §8, §9, §10, §11, §12

[9] = system: SK-OV-3; test: Test Example 4 cell killing study (CTG, 6 days); conditions: Homo sapiens, SK-OV-3, 144 h, 6 days culture, read-out: IC50 (SKOV3)
Description: as §8, §9, §10, §11, §12

SMILES: C=C1C[C@@H]2CC[C@@]34C[C@H]5O[C@H]6[C@@H](O3)[C@H]3O[C@H](CC[C@@H]3O[C@H]6[C@H]5O4)CC(=O)C[C@@H]3[C@@H](OC)[C@@H](C[C@H](O)CO)O[C@H]3C[C@H]3O[C@@H](CC[C@@H]1O2)C[C@@H](C)C3=C [Compound E1-30, reference compound]
- Maximum inhibition ([1]; A549, CTG, incubated 5 h): 62.46%
- IC50 ([1]; Homo sapiens, A549, 5 h): 0.781 nM
- IC50 ([2]; Homo sapiens, MDA-MB-468, 5 h): 0.36 nM
- Maximum inhibition ([2]; MDA-MB-468, CTG, incubated 5 h): 90.49%
- IC50 ([3]; Homo sapiens, SK-BR-3, 5 h): 0.166 nM
- Maximum inhibition ([3]; SKBR3, CTG, incubated 5 h): 96.15%
- IC50 [4]: 0.23 nM
- IC50 [5]: 0.32 nM
- IC50 [6]: 0.31 nM
- IC50 [7]: 0.39 nM
- IC50 [8]: 0.45 nM
- IC50 [9]: 0.17 nM
